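Interpolation was linear, between the two tested concentrations surrounding the appropriate level; five concentrations were tested over 48 hours in 96-well plates. The concentration for 50% growth inhibition is given as GI50.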 Activity calls are given as the source filed them. No stated cut-off is given here; in the data, active = GI50 up to about 1.1 µM and inactive = higher.
Experiments:
Assay in all cases: inhibition of tumour cell growth, NCI panel, 48 h
ACHN = system: ACHN
BT-549 = system: BT-549
CAKI-1 = system: CAKI-1
CCRF-CEM = system: CCRF-CEM
HCC 2998 = system: HCC 2998
HCT-116 = system: HCT-116
HCT-15 = system: HCT-15
HT-29 = system: HT-29
IGROV-1 = system: IGROV-1
K562 = system: K562
MCF7 = system: MCF7
MDA-N = system: MDA-N
NCI-H23 = system: NCI-H23
NCI-H522 = system: NCI-H522
PC-3 = system: PC-3
SK-MEL-28 = system: SK-MEL-28
SK-MEL-5 = system: SK-MEL-5
SNB-75 = system: SNB-75
SW-620 = system: SW-620
U-251 = system: U-251

| SMILES | GI50 (ACHN) | GI50 (BT-549) | GI50 (CAKI-1) | GI50 (CCRF-CEM) | GI50 (HCC 2998) | GI50 (HCT-116) | GI50 (HCT-15) [µM] | GI50 (HT-29) | GI50 (IGROV-1) | GI50 (K562) | GI50 (MCF7) | GI50 (MDA-N) | GI50 (NCI-H23) | GI50 (NCI-H522) | GI50 (PC-3) | GI50 (SK-MEL-28) | GI50 (SK-MEL-5) | GI50 (SNB-75) | GI50 (SW-620) | GI50 (U-251) |
| --- | --- | --- | --- | --- | --- | --- | --- | --- | --- | --- | --- | --- | --- | --- | --- | --- | --- | --- | --- | --- |
| COc1cc2c(cc1O)CCN[C@@]21CS[C@H]2c3c(OC(C)=O)c(C)c4c(c3C(COC1=O)N1C2C2c3c(cc(C)c(OC)c3O)CC([C@@H]1O)N2C)OCO4 (stereo not given in full) | < 0.0001 µM (active) | 0.00181 µM (active) | < 0.0001 µM (active) | < 0.0001 µM (active) | 0.0001 µM (active) | 0.0001 µM (active) | 0.0001 | 0.00128 µM (active) | < 0.0001 µM (active) | 0.000324 µM (active) | < 0.0001 µM (active) | < 0.0001 µM (active) | < 0.0001 µM (active) | < 0.0001 µM (active) | < 0.0001 µM (active) | < 0.0001 µM (active) | < 0.0001 µM (active) | 0.00131 µM (active) | < 0.0001 µM (active) | 0.0001 µM (active) |
| c1ccc(C2=NC3OC2c2ccccc23)cc1 (stereo not given) | > 10 µM (inactive) | > 10 µM (inactive) | > 10 µM (inactive) | > 10 µM (inactive) | > 10 µM (inactive) | > 10 µM (inactive) | > 10 | > 10 µM (inactive) | > 10 µM (inactive) | > 10 µM (inactive) | 3.15 µM (inactive) | > 10 µM (inactive) | > 10 µM (inactive) | > 10 µM (inactive) | > 10 µM (inactive) | > 10 µM (inactive) | > 10 µM (inactive) | > 10 µM (inactive) | > 10 µM (inactive) | > 10 µM (inactive) |
| CC(C)=CCc1[nH]c2ccccc2c1C1=C(O)C(=O)C(c2c(CC=C(C)C)[nH]c3ccccc23)=C(O)C1=O | 1.56 µM (inactive) | 0.419 µM (active) | 1.73 µM (inactive) | 1.03 µM (active) | 1.01 µM (active) | 1.5 µM (inactive) | 1.33 | 2.22 µM (inactive) | 0.573 µM (active) | 0.989 µM (active) | 2.26 µM (inactive) | 1.04 µM (active) | 1.91 µM (inactive) | 2.2 µM (inactive) | 1.83 µM (inactive) | 0.757 µM (active) | 1.76 µM (inactive) | 0.604 µM (active) | 3.27 µM (inactive) | 0.587 µM (active) |
| CC1CC(=O)Nc2ccc(/N=N/N(C)C)cc2N1C=O (stereo not given) | > 100 µM (inactive) | > 100 µM (inactive) | > 100 µM (inactive) | > 100 µM (inactive) | > 100 µM (inactive) | > 100 µM (inactive) | > 100 | > 100 µM (inactive) | > 100 µM (inactive) | > 100 µM (inactive) | > 100 µM (inactive) | > 100 µM (inactive) | > 100 µM (inactive) | > 100 µM (inactive) | > 100 µM (inactive) | > 100 µM (inactive) | > 100 µM (inactive) | > 100 µM (inactive) | > 100 µM (inactive) | > 100 µM (inactive) |
| CC(=O)Oc1c2c(c3n(c1=O)CCCC3)C(=O)N(c1ccccc1)C2=O | 51.4 µM (inactive) | 38.2 µM (inactive) | > 100 µM (inactive) | > 100 µM (inactive) | 30.8 µM (inactive) | > 100 µM (inactive) | 59 | 94.2 µM (inactive) | 78.5 µM (inactive) | > 100 µM (inactive) | > 100 µM (inactive) | 52.8 µM (inactive) | > 100 µM (inactive) | 61.5 µM (inactive) | 46.5 µM (inactive) | > 100 µM (inactive) | 53.3 µM (inactive) | 87.5 µM (inactive) | > 100 µM (inactive) | > 100 µM (inactive) |
| Cn1c(=O)[nH]c2nccnc2c1=O | > 10 µM (inactive) | > 10 µM (inactive) | > 10 µM (inactive) | > 10 µM (inactive) | > 10 µM (inactive) | > 10 µM (inactive) | > 10 | > 10 µM (inactive) | > 10 µM (inactive) | > 10 µM (inactive) | > 10 µM (inactive) | > 10 µM (inactive) | > 10 µM (inactive) | > 10 µM (inactive) | > 10 µM (inactive) | > 10 µM (inactive) | > 10 µM (inactive) | > 10 µM (inactive) | > 10 µM (inactive) | > 10 µM (inactive) |
| O=[N+]([O-])c1ccc(NC(=S)Nc2ccccn2)cc1 | 34.1 µM (inactive) | > 92.3 µM (inactive) | 5.11 µM (inactive) | > 64.4 µM (inactive) | > 100 µM (inactive) | 11.9 µM (inactive) | 18.8 | 31.7 µM (inactive) | 11.9 µM (inactive) | > 69.2 µM (inactive) | 12.4 µM (inactive) | 91.8 µM (inactive) | 63.4 µM (inactive) | 31.8 µM (inactive) | 40.6 µM (inactive) | > 95.3 µM (inactive) | 43.3 µM (inactive) | 18 µM (inactive) | 40.3 µM (inactive) | 24.3 µM (inactive) |
| Cc1cc(OC2OC(CO)C(O)C(O)C2O)ccc1O (stereo not given) | > 100 µM (inactive) | > 100 µM (inactive) | > 100 µM (inactive) | > 100 µM (inactive) | > 100 µM (inactive) | > 100 µM (inactive) | > 100 | > 100 µM (inactive) | > 100 µM (inactive) | > 100 µM (inactive) | > 100 µM (inactive) | > 100 µM (inactive) | > 100 µM (inactive) | > 100 µM (inactive) | > 100 µM (inactive) | > 100 µM (inactive) | > 100 µM (inactive) | > 100 µM (inactive) | > 100 µM (inactive) | > 100 µM (inactive) |
| Cn1nnnc1SC(F)(F)c1nc2ccccc2o1 | > 100 µM (inactive) | > 100 µM (inactive) | > 100 µM (inactive) | 25.1 µM (inactive) | > 100 µM (inactive) | > 100 µM (inactive) | > 100 | > 100 µM (inactive) | > 100 µM (inactive) | > 100 µM (inactive) | > 100 µM (inactive) | > 100 µM (inactive) | > 100 µM (inactive) | > 100 µM (inactive) | > 100 µM (inactive) | > 100 µM (inactive) | > 100 µM (inactive) | 52.1 µM (inactive) | > 100 µM (inactive) | > 100 µM (inactive) |
| Cc1c2ccncc2c(C)c2c1sc1ccccc12 | 3.85 µM (inactive) | 16.7 µM (inactive) | 7.45 µM (inactive) | 3.31 µM (inactive) | 11.8 µM (inactive) | 4.49 µM (inactive) | 7.24 | 6.1 µM (inactive) | 5.94 µM (inactive) | 6.5 µM (inactive) | 1.84 µM (inactive) | 13.1 µM (inactive) | 8.2 µM (inactive) | 5.41 µM (inactive) | 11.1 µM (inactive) | 13.3 µM (inactive) | 7.87 µM (inactive) | 14.6 µM (inactive) | 7.06 µM (inactive) | 10.8 µM (inactive) |
| COc1ccc2c3c1OC1C(=O)C=CC4(CC2)N(C)CCC314 (stereo not given) | 18.9 µM (inactive) | 23.6 µM (inactive) | 20.1 µM (inactive) | 12.7 µM (inactive) | 13.8 µM (inactive) | 14 µM (inactive) | 18.9 | 28.6 µM (inactive) | 23.7 µM (inactive) | 12.2 µM (inactive) | 20.2 µM (inactive) | 15.8 µM (inactive) | 14 µM (inactive) | 11 µM (inactive) | 21.7 µM (inactive) | 22.2 µM (inactive) | 10.4 µM (inactive) | 28.1 µM (inactive) | 14.2 µM (inactive) | 19.5 µM (inactive) |
| O=S(=O)(c1ccccc1)c1ccc(/N=N/O)nc1 | > 100 µM (inactive) | > 100 µM (inactive) | > 100 µM (inactive) | 59.4 µM (inactive) | > 100 µM (inactive) | > 100 µM (inactive) | > 100 | > 100 µM (inactive) | > 100 µM (inactive) | > 100 µM (inactive) | 76 µM (inactive) | > 100 µM (inactive) | > 100 µM (inactive) | > 100 µM (inactive) | > 100 µM (inactive) | > 100 µM (inactive) | > 10 µM (inactive) | 62.2 µM (inactive) | > 100 µM (inactive) | > 100 µM (inactive) |
| COc1cc([C@H]2c3[nH]c4ccccc4c3C[C@H]3COC(=O)N32)cc(OC)c1O | 0.163 µM (active) | 29.2 µM (inactive) | 0.0395 µM (active) | 0.0209 µM (active) | 0.143 µM (active) | 0.0344 µM (active) | 0.0256 | 0.0228 µM (active) | 0.0502 µM (active) | 0.0153 µM (active) | < 0.01 µM (active) | < 0.01 µM (active) | 0.0748 µM (active) | 0.015 µM (active) | 0.0378 µM (active) | 1.66 µM (inactive) | 0.0193 µM (active) | 0.0324 µM (active) | 0.0268 µM (active) | 0.0326 µM (active) |
| COc1cc(/C=C2\CC3C4CC[C@H]5C[C@@H](O)CC[C@]5(C)C4CC[C@]3(C)C2=O)cc(OC)c1OC (stereo not given in full) | 11.8 µM (inactive) | 24.8 µM (inactive) | 9.4 µM (inactive) | 7.36 µM (inactive) | 7.13 µM (inactive) | 7.19 µM (inactive) | 9.59 | 9.44 µM (inactive) | 36.6 µM (inactive) | 4.68 µM (inactive) | 4.25 µM (inactive) | 19.9 µM (inactive) | 20.4 µM (inactive) | 7.93 µM (inactive) | 5.48 µM (inactive) | 32.7 µM (inactive) | 9.29 µM (inactive) | 14.4 µM (inactive) | 24.8 µM (inactive) | 8.26 µM (inactive) |

From ChEMBL document CHEMBL1201862, “PubChem BioAssay data set” (2004)
